These results are taken from patent publication US11149031B2, “Substituted N-(3-fluoropropyl)-pyrrolidine compounds, processes for their preparation and therapeutic uses thereof” (SANOFI, priority 2016, dated 2021).

pIC50: −log10 of the molar value. Like-named read-outs stand apart in the source and are kept apart here.

In assay [1] the target is His6-ERα298-554 WT (ERα ligand-binding domain) (Homo sapiens (Human), UniProt P03372). Put plainly: Test A: biochemical antagonist activity, LanthaScreen TR-FRET ERα coactivator assay, WT. To be noted: read-out: Antagonism WT IC50. The procedure, abridged: (§1)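 TR-FRET 520:495 nm emission ratio read after overnight room-temperature incubation; IC50 derived by 4-parameter logistic fit. Mix: 0.5 nM receptor LBD, 0.5 nM Tb-His6 antibody, 250 nM PGC1a peptide, 3 nM or 10 nM estradiol, pH 7.4 phosphate buffer.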
(In general: TR-FRET usually uses a lanthanide donor and a delayed reading to cut background.)

Assay [2] has as its target His6-ERα298-554 D538G mutant (ERα ligand-binding domain) (Homo sapiens (Human), UniProt P03372, D538G). In words: Test A: biochemical antagonist activity, LanthaScreen TR-FRET ERα coactivator assay, D538G mutant. To be noted: read-out: Antagonism D538G IC50. The procedure, abridged:
as §1

Assay [3] concerns the target His6-ERα298-554 Y537S mutant (ERα ligand-binding domain) (Homo sapiens (Human), UniProt P03372, Y537S). In words: Test A: biochemical antagonist activity, LanthaScreen TR-FRET ERα coactivator assay, Y537S mutant. The settings on record: read-out: Antagonism Y537S IC50. The procedure, abridged:
as §1

Assay [4] concerns MCF7 cells (breast tumor cells) WT. In words: Test B: cell proliferation/viability assay (CellTiter-Glo) on MCF7 WT. Type of assay: cell-based. The settings on record: Homo sapiens, MCF7, 168 h, 7 days of compound exposure. The procedure:
(§2) Test B: Cell Proliferation/Viability Assay on MCF7 (Breast Tumor Cells) WT and Mutants Cell Lines
(§3) Test B involves measuring the in vitro proliferation activity of the compounds of the invention by analyzing the viability of the tumor cells.
The measurements of the viability were made using a breast cancer cell viability assay as described hereunder. […]
(§4) MCF7 cells (ATCC) or MCF7 cells expressing (and dependent) on mutants estrogen receptor Tyr 537 Ser or Asp 538 Gly were seeded in 384 wells microplate at concentration of >999 cells/30 μL per well in red phenol free MEM medium containing 5% charcoal dextran striped FBS. The following day, 9 points serial 1:5 dilution of each compound were added to the cells in 20 μL at final concentrations ranging from 3-0.000001 μM. After 7 days of compound exposure, 50 μL of CellTiter-Glo (promega) was added to the cells and relative luminescence arbitrary units (RLUs) were determined in luminescence plate reader (Envision device). CellTiter-Glo was added to 50 μL medium without cells to determine the background signal.
(§5) The percent of viability of each sample was determined as follows: (RLU sample−RLU background/RLU untreated−RLU background)*100=% viability.
On the technique in general: In ATP-based viability assays light output follows the ATP content of the culture.

Assay [5] relates to MCF7 cells expressing mutant estrogen receptor Tyr 537 Ser. Put plainly: Test B: cell proliferation/viability assay (CellTiter-Glo) on MCF7 Tyr 537 Ser mutant. Type of assay: cell-based. To be noted: Homo sapiens, MCF7, 168 h, MCF7 cells expressing ER Tyr 537 Ser mutant, 7 days of compound exposure, read-out: proliferation MCF7 Y537S IC50.
Description: as §2, §3
(§6) The measurements of the viability were made using a breast cancer cell viability assay as described hereunder.
(§7) MCF7 cells expressing (and dependent) on mutants estrogen receptor Tyr 537 Ser or Asp 538 Gly were generated by transfection of MCF7 parental cells (ATCC) with expression vectors coding for different mutants of estrogen receptor Tyr 537 Ser or Asp 538 Gly. The cells were first selected by antibiotic (related to vector expression) and then selected for their growth dependence on estrogen receptor based on their ability to grow in vitro in absence of estradiol (parental cell line die in absence of estradiol).
as §4, §5

Assay [6] relates to MCF7 cells expressing mutant estrogen receptor Asp 538 Gly. In words: Test B: cell proliferation/viability assay (CellTiter-Glo) on MCF7 Asp 538 Gly mutant. Type of assay: cell-based. To be noted: Homo sapiens, MCF7, 168 h, MCF7 cells expressing ER Asp 538 Gly mutant, 7 days of compound exposure, read-out: proliferation MCF7 D538G IC50.
Description: as §2, §3, §6, §7, §4, §5

Assay [7] concerns the target ERα in MCF7 cells (Homo sapiens (Human), UniProt P03372). Put plainly: Test C: estrogen receptor degradation activity, ERα in cell western assay in MCF7 cells. Type of assay: cell-based. To be noted: for DC50: 4 hours post compound addition, ERα in cell western, read-out: Degradation IC50; for % Degradation at 3 μM: 4 hours, relative to fulvestrant. The procedure, abridged:
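In-cell western: ERα level (green) against DNA stain Syto-64 (red) by integrated intensity. MCF7 cells in hormone-depleted medium exposed 4 h to compound at 3-0.000018 μM final (1:5 series); fulvestrant 0.1 μM as positive control.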

[8] abbreviates: asterisk (*): protocol using 10 nM estradiol.

His6-ERα298-554 Y537S mutant (ERα ligand-binding domain), sequence (P03372 298-554 Y537S): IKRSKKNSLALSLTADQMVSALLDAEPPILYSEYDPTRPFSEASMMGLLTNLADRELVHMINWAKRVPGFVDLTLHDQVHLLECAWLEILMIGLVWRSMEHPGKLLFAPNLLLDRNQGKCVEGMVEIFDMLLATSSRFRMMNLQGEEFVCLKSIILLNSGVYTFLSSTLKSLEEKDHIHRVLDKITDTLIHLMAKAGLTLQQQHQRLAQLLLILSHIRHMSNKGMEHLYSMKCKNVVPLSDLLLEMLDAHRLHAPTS
ERα in MCF7 cells, sequence (P03372 whole entry): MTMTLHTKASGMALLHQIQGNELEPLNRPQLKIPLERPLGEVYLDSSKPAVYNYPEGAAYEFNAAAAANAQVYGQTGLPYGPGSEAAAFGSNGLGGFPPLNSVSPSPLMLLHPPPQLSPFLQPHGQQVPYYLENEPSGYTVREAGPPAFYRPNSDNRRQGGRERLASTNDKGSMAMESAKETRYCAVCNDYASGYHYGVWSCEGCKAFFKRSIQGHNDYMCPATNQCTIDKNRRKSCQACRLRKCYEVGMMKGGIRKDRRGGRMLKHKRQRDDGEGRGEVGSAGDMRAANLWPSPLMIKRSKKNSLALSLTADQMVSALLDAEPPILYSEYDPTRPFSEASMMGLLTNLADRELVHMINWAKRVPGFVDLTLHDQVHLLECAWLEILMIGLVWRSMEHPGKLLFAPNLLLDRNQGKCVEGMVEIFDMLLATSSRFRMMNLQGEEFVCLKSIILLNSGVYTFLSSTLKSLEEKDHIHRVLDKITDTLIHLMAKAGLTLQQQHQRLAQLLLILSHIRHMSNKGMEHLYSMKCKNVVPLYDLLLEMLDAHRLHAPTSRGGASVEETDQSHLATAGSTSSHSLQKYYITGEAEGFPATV
His6-ERα298-554 WT (ERα ligand-binding domain), sequence (P03372 298-554): as the sequence (P03372 298-554 Y537S) above, with S240Y counted along it
His6-ERα298-554 D538G mutant (ERα ligand-binding domain), sequence (P03372 298-554 D538G): as the sequence (P03372 298-554 Y537S) above, with S240Y, D241G counted along it

Take `CCOc1ccc(C2=C(c3ccc(O[C@H]4CCN(CCCF)C4)cc3)c3ccc(O)cc3SCC2)c(F)n1` [Example 187, 4-(6-ethoxy-2-fluoro-3-pyridyl)-5-[4-[(3S)-1-(3-fluoropropyl)pyrrolidin-3-yl]oxyphenyl]-2,3-dihydro-1-benzothiepin-8-ol]: the pIC50 in assay [1] (protocol with 3 nM estradiol) is 8.82; in assay [2] (protocol with 3 nM estradiol) it was 7.37; in assay [3] (protocol with 3 nM estradiol) it was 7.66; in assay [4], 9.70; in assay [5], 8.40; in assay [6], 9.15. For the same compound, in assay [7], the DC50 was found to be 0.5 nM. Further, the “% Degradation at 3 μM” value in assay [7] was determined as 92%.

For the compound `Oc1ccc2c(c1F)CCCC(c1ccc(Cl)cc1Cl)=C2c1ccc(O[C@H]2CCN(CCCF)C2)nc1` [Example 245, 6-(2,4-dichlorophenyl)-1-fluoro-5-[6-[(3S)-1-(3-fluoropropyl)pyrrolidin-3-yl]oxy-3-pyridyl]-8,9-dihydro-7H-benzo[7]annulen-2-ol], the pIC50 is 9.40 in assay [1] (protocol with 3 nM estradiol); 8.40 in assay [2] (protocol with 3 nM estradiol); 8.52 in assay [3] (protocol with 3 nM estradiol); 9.52 in assay [4]; 8.52 in assay [5]; 10.00 in assay [6]. The DC50 in assay [7] amounted to 0.5 nM. In addition, the “% Degradation at 3 μM” value in assay [7] is given as 87%.

In the case of `Oc1ccc2c(c1)OCCC(c1ccc(OCCN3CCCC3)cc1)=C2c1ccc(O[C@H]2CCN(CCCF)C2)cc1` [Example 147, 5-[4-[(3S)-1-(3-fluoropropyl)pyrrolidin-3-yl]oxyphenyl]-4-[4-(2-pyrrolidin-1-ylethoxy)phenyl]-2,3-dihydro-1-benzoxepin-8-ol], the pIC50 in assay [1] (setting [8]) is 6.41; in assay [2] (setting [8]), below 5.40; in assay [3] (setting [8]) it was 5.42; in assay [4] it was 7.28; in assay [5] it was below 6.00; in assay [6], 7.05. Besides, the DC50 in assay [7] stood at 49 nM. For the same compound, in assay [7], the “% Degradation at 3 μM” value is given as 77%.

`Cc1ccc(C2=C(c3ccc(O[C@H]4CCN(CCCF)C4)cc3)c3ccc(O)cc3SCC2)c(F)n1` [Example 192, 4-(2-fluoro-6-methyl-3-pyridyl)-5-[4-[(3S)-1-(3-fluoropropyl)pyrrolidin-3-yl]oxyphenyl]-2,3-dihydro-1-benzothiepin-8-ol]: the pIC50 is 8.05 in assay [1] (setting [8]); 6.69 in assay [2] (setting [8]); 6.96 in assay [3] (setting [8]); 9.52 in assay [4]; 8.30 in assay [5]; 9.05 in assay [6]. The DC50 in assay [7] was determined as 0.4 nM. Besides, in assay [7], the “% Degradation at 3 μM” value is on record as 91%.

As to `O=C1Cc2cc(C3=C(c4ccc(O[C@H]5CCN(CCCF)C5)cc4)c4ccc(O)cc4SC3)ccc2N1` [Example 51, 5-[4-[4-[(3S)-1-(3-fluoropropyl)pyrrolidin-3-yl]oxyphenyl]-7-hydroxy-2H-thiochromen-3-yl]indolin-2-one], the pIC50 in assay [1] (setting [8]) was 6.46; in assay [2] (setting [8]), below 5.40; in assay [3] (setting [8]), 5.44; in assay [4], 7.04; in assay [5], 6.64; in assay [6], 6.83. Moreover, the DC50 in assay [7] came out at 12 nM. Also, the “% Degradation at 3 μM” value in assay [7] stood at 85%.

As for `CCOc1cc(F)c(C2=C(c3ccc(O[C@H]4CCN(CCCF)C4)cc3)c3ccc(O)cc3SC2)cc1F` [Example 40, 3-(4-ethoxy-2,5-difluoro-phenyl)-4-[4-[(3S)-1-(3-fluoropropyl)pyrrolidin-3-yl]oxyphenyl]-2H-thiochromen-7-ol], the pIC50 in assay [1] (setting [8]) was 7.36; in assay [2] (setting [8]), 6.05; in assay [3] (setting [8]) it was 6.22; in assay [4], 9.00; in assay [5], 7.70; in assay [6] it was 8.70. The DC50 in assay [7] was 0.2 nM. The “% Degradation at 3 μM” value in assay [7] stood at 81%.

Consider `CCNc1ccc(C2=C(c3ccc(O[C@H]4CCN(CCCF)C4)cc3)c3ccc(O)cc3SCC2)c(F)c1` [Example 200, 4-[4-(ethylamino)-2-fluoro-phenyl]-5-[4-[(3S)-1-(3-fluoropropyl)pyrrolidin-3-yl]oxyphenyl]-2,3-dihydro-1-benzothiepin-8-ol], for which the pIC50 in assay [1] (setting [8]) was 8.52; in assay [2] (setting [8]) it was 7.29; in assay [3] (setting [8]) it was 7.48; in assay [4] it was 9.15; in assay [5] it was 7.92; in assay [6], 8.70. Further, the DC50 in assay [7] worked out at 0.5 nM. For the same compound, in assay [7], the “% Degradation at 3 μM” value is recorded as 91%.

Consider `Oc1ccc2c(c1)SCCC(c1ccc(OCF)cc1)=C2c1ccc(O[C@H]2CCN(CCCF)C2)cc1` [Example 218, 4-[4-(fluoromethoxy)phenyl]-5-[4-[(3S)-1-(3-fluoropropyl)pyrrolidin-3-yl]oxyphenyl]-2,3-dihydro-1-benzothiepin-8-ol], for which the pIC50 in assay [1] (setting [8]) is 9.00; in assay [2] (setting [8]), 7.60; in assay [3] (setting [8]) it was 7.66; in assay [4] it was 10.00; in assay [5] it was 9.00; in assay [6], 10.00. The DC50 in assay [7] was determined as 0.2 nM. Moreover, in assay [7], the “% Degradation at 3 μM” value came to 78%.

Take `CCOc1ccc(C2=C(c3ccc(O[C@H]4CCN(CCCF)C4)nc3)c3ccc(O)cc3SC2)c(F)n1` [Example 79, 3-(6-ethoxy-2-fluoro-3-pyridyl)-4-[6-[(3S)-1-(3-fluoropropyl)pyrrolidin-3-yl]oxy-3-pyridyl]-2H-thiochromen-7-ol]: the pIC50 in assay [1] (setting [8]) is 9.30; in assay [2] (setting [8]), 8.22; in assay [3] (setting [8]) it was 8.30; in assay [4], 9.52; in assay [5] it was 9.10; in assay [6] it was 8.30. The DC50 in assay [7] was 0.2 nM. In assay [7], the “% Degradation at 3 μM” value was found to be 89%.

Turning to `CC(C)(C)OC(=O)N1CCOc2ccc(C3=C(c4ccc(O[C@H]5CCN(CCCF)C5)cc4)c4ccc(O)cc4SC3)cc21` [Example 59, tert-butyl 6-[4-[4-[(3S)-1-(3-fluoropropyl)pyrrolidin-3-yl]oxyphenyl]-7-hydroxy-2H-thiochromen-3-yl]-2,3-dihydro-1,4-benzoxazine-4-carboxylate], the pIC50 in assay [1] (setting [8]) was 6.06; in assay [2] (setting [8]) it was below 5.40; in assay [3] (setting [8]) it was below 5.40; in assay [4], 7.57; in assay [5] it was below 6.00; in assay [6], below 6.00. In addition, the DC50 in assay [7] is 0.9 nM. Also, the “% Degradation at 3 μM” value in assay [7] is on record as 81%.

Regarding `CCOc1ccc(C2=C(c3cnc(O[C@H]4CCN(CCCF)C4)nc3)c3ccc(O)cc3SC2)c(F)n1` [Example 76, 3-(6-ethoxy-2-fluoro-3-pyridyl)-4-[2-[(3S)-1-(3-fluoropropyl)pyrrolidin-3-yl]oxypyrimidin-5-yl]-2H-thiochromen-7-ol], the pIC50 in assay [1] (setting [8]) was 8.40; in assay [2] (setting [8]), 7.00; in assay [3] (setting [8]) it was 7.21; in assay [4], 9.22; in assay [5], 8.22; in assay [6] it was 9.00. Further, the DC50 in assay [7] came to 0.6 nM. Besides, in assay [7], the “% Degradation at 3 μM” value is listed as 88%.
